From patent publication US20100041642A1, “UREA INHIBITORS OF MAP KINASES” (LOCUS PHARMACEUTICALS, INC., priority 2008, published 2010)

Target: p38 (Homo sapiens, UniProt Q16539)
Experiment: Protein Kinase Assay (33P incorporation from γ-[33P]ATP into GST-ATF-2)
Assay type: biochemical
Conditions: 2 nM p38, preincubated 20 min at 30° C.; 10 uM cold ATP, 2 uM GST-ATF2, 70 min; read-out: ACT. (Activity), IC50 category in Protein Kinase Assay
Procedure: Protein Kinase Assay. The protein kinase activity of p38 was determined by measuring the incorporation of ^33P from γ-[^33P]ATP into the GST-ATF-2 substrate, amino acids 19-96 (Upstate, N.Y. USA). The reactions were carried out in a final volume of 50 μL of 24 mM Tris-HCl buffer, pH 7.5, containing 13 mM MgCl2, 12% Glycerol, 2% DMSO, 2 mM DTT, […] of γ-[^33P]ATP (1000 Ci/mmol; 1 Ci=37 GBq) (GE Healthcare, Piscataway, N.J.), 10 uM cold ATP (GE Healthcare, Piscataway, N.J.), and 2 uM GST-ATF2. Compounds were preincubated with 2 nM p38 for 20 min at 30° C.; the reactions were initiated by the addition of GST-ATF2 and ATP and incubated for 70 min at 30° C. before being stopped by the addition of 10 μL of 600 mM phosphoric acid. The phosphorylated substrate was captured on phosphocellulose 96-well plate (Millipore MAPHNOB 10), washed with 100 mM phosphoric acid, and counted in a BeckmenCoulter LS6500 liquid scintillation counter. […] (Activity).

p38, sequence (Q16539 whole entry): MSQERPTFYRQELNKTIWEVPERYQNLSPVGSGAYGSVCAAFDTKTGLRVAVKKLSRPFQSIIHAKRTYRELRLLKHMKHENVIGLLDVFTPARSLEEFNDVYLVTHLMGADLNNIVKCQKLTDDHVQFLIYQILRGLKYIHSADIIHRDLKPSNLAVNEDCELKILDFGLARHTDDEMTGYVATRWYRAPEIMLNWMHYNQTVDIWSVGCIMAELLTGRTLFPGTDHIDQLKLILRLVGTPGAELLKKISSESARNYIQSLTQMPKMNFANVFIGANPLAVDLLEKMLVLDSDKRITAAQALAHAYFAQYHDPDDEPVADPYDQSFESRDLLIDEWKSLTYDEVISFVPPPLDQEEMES

| IC50 | Structure (SMILES) |
| --- | --- |
| < 100 nM | COc1ccc(-c2cc(NC(=O)Nc3sc(C(C)(C)C)cc3C(=O)N3CCN(C)C(=O)C3(C)C)c(F)cc2C)cn1 [1-(5-tert-butyl-3-(2,2,4-trimethyl-3-oxopiperazine-1-carbonyl)thiophen-2-yl)-3-(2-fluoro-5-(6-methoxypyridin-3-yl)-4-methylphenyl)urea] |
| < 100 nM | Cc1ccc(NC(=O)Nc2sc(C(C)(C)C)cc2C(=O)N2CCNC(=O)C2(C)C)cc1-c1ccc(N2CCN(C)CC2)nc1 [1-(5-tert-butyl-3-(2,2-dimethyl-3-oxopiperazine-1-carbonyl)thiophen-2-yl)-3-(4-methyl-3-(6-(4-methylpiperazin-1-yl)pyridin-3-yl)phenyl)urea] |
| < 100 nM | Cc1ccc(NC(=O)Nc2sc(C(C)(C)C)cc2C(=O)N2CCNC(=O)C2(C)C)cc1C#CCN1CCN(C)CC1 [1-(5-tert-butyl-3-(2,2-dimethyl-3-oxopiperazine-1-carbonyl)thiophen-2-yl)-3-(4-methyl-3-(3-(4-methylpiperazin-1-yl)prop-1-ynyl)phenyl)urea] |
| < 100 nM | Cc1ccc(NC(=O)Nc2sc(C(C)(C)C)cc2C(=O)N2CCNC(=O)C2(C)C)cc1C#CCOCCN1CCOCC1 [1-(5-tert-butyl-3-(2,2-dimethyl-3-oxopiperazine-1-carbonyl)thiophen-2-yl)-3-(4-methyl-3-(3-(2-morpholinoethoxy)prop-1-ynyl)phenyl)urea] |
| < 100 nM | Cc1ccc(NC(=O)Nc2sc(C(C)(C)C)cc2C(=O)N2CCN(C)C(=O)C2(C)C)cc1-c1ccc(N2CCN(C)CC2)nc1 [1-(5-tert-butyl-3-(2,2,4-trimethyl-3-oxopiperazine-1-carbonyl)thiophen-2-yl)-3-(4-methyl-3-(6-(4-methylpiperazin-1-yl)pyridin-3-yl)phenyl)urea] |
| < 100 nM | Cc1ccc(NC(=O)Nc2sc(C(C)(C)C)cc2C(=O)N2CCNC(=O)C2(C)C)cc1-c1ccc(CN2CCOCC2)nc1 [1-(5-tert-butyl-3-(2,2-dimethyl-3-oxopiperazine-1-carbonyl)thiophen-2-yl)-3-(4-methyl-3-(6-(morpholinomethyl)pyridin-3-yl)phenyl)urea] |
| < 100 nM | Cc1nnc(-c2ccc(-c3cc(NC(=O)Nc4cc(C(C)(C)C)sc4C(=O)N4CCN(C)C(=O)C4(C)C)ccc3C)cn2)o1 |
| < 100 nM | COc1ccc(-c2ccc(C)c(NC(=O)Nc3sc(C(C)(C)C)cc3C(=O)N3CCNC(=O)C3(C)C)c2)cn1 [1-(5-tert-butyl-3-(2,2-dimethyl-3-oxopiperazine-1-carbonyl)thiophen-2-yl)-3-(5-(6-methoxypyridin-3-yl)-2-methylphenyl)urea] |

The next lines start with the compound.

| Structure (SMILES) | IC50 |
| --- | --- |
| Cc1ccc(NC(=O)Nc2sc(C(C)(C)C)cc2C(=O)N2CCNC(=O)C2(C)C)cc1C#Cc1ccccn1 [1-(5-tert-butyl-3-(2,2-dimethyl-3-oxopiperazine-1-carbonyl)thiophen-2-yl)-3-(4-methyl-3-(pyridin-2-ylethynyl)phenyl)urea] | < 100 nM |
| Cc1ccc(NC(=O)Nc2sc(C(C)(C)C)cc2C(=O)N2CCNC(=O)C2(C)C)cc1-c1ccc(N2CCCCC2)nc1 [1-(5-tert-butyl-3-(2,2-dimethyl-3-oxopiperazine-1-carbonyl)thiophen-2-yl)-3-(4-methyl-3-(6-(piperidin-1-yl)pyridin-3-yl)phenyl)urea] | < 100 nM |
| CCNC(=O)c1ccc(-c2cc(NC(=O)Nc3sc(C(C)(C)C)cc3C(=O)N3CCN(C)C(=O)C3(C)C)ccc2C)cn1 [5-(5-(3-(5-tert-butyl-3-(2,2,4-trimethyl-3-oxopiperazine-1-carbonyl)thiophen-2-yl)ureido)-2-methylphenyl)-N-ethylpyridine-2-carboxamide] | < 100 nM |
| Cc1ccc(NC(=O)Nc2sc(C(C)(C)C)cc2C(=O)N2CCN(C)C(=O)C2(C)C)cc1-c1ccc(-n2cccn2)nc1 [1-(3-(6-(1H-pyrazol-1-yl)pyridin-3-yl)-4-methylphenyl)-3-(5-tert-butyl-3-(2,2,4-trimethyl-3-oxopiperazine-1-carbonyl)thiophen-2-yl)urea] | < 100 nM |
| Cc1c(NC(=O)Nc2sc(C(C)(C)C)cc2C(=O)N2CCNC(=O)C2(C)C)cccc1-c1ccc(N2CCOCC2)nc1 [1-(5-tert-butyl-3-(2,2-dimethyl-3-oxopiperazine-1-carbonyl)thiophen-2-yl)-3-(2-methyl-3-(6-morpholinopyridin-3-yl)phenyl)urea] | < 100 nM |
| COc1ccc(-c2cc(NC(=O)Nc3sc(C(C)(C)C)cc3C(=O)N3CCNC(=O)C3(C)C)cc(F)c2C)cn1 [1-(5-tert-butyl-3-(2,2-dimethyl-3-oxopiperazine-1-carbonyl)thiophen-2-yl)-3-(3-fluoro-5-(6-methoxypyridin-3-yl)-4-methylphenyl)urea] | < 100 nM |
| COC(=O)CN1CCN(C(=O)c2cc(C(C)(C)C)sc2NC(=O)Nc2ccc(C)c(-c3ccncc3)c2)C(C)(C)C1=O [methyl 2-(4-(2-tert-butyl-5-(3-(4-methyl-3-(pyridin-4-yl)phenyl)ureido)thiophene-4-carbonyl)-3,3-dimethyl-2-oxopiperazin-1-yl)acetate] | < 100 nM |
| CCc1ccc(-c2cc(NC(=O)Nc3sc(C(C)(C)C)cc3C(=O)N3CCN(CCN(C)C)C(=O)C3(C)C)ccc2C)cn1 [1-(5-tert-butyl-3-(4-(2-(dimethylamino)ethyl)-2,2-dimethyl-3-oxopiperazine-1-carbonyl)thiophen-2-yl)-3-(3-(6-ethylpyridin-3-yl)-4-methylphenyl)urea] | < 1000 nM |
| CC(C)(C)c1cc(C(=O)N2CCNC(=O)C2(C)C)c(NC(=O)Nc2cccc(-c3ccnc(F)c3)c2)s1 [1-(5-tert-butyl-3-(2,2-dimethyl-3-oxopiperazine-1-carbonyl)thiophen-2-yl)-3-(3-(2-fluoropyridin-4-yl)phenyl)urea] | < 100 nM |
| Cc1ccc(NC(=O)Nc2sc(C(C)(C)C)cc2C(=O)N2CCNC(=O)C2(C)C)cc1-c1cccnc1 [1-(5-tert-butyl-3-(2,2-dimethyl-3-oxopiperazine-1-carbonyl)thiophen-2-yl)-3-(4-methyl-3-(pyridin-3-yl)phenyl)urea] | < 100 nM |
| CCC(C)(C)c1cc(C(=O)N2CCN(C)C(=O)C2(C)C)c(NC(=O)Nc2ccc(C)c(-c3ccc(CN4CCOCC4)nc3)c2)s1 [1-(4-methyl-3-(6-(morpholinomethyl)pyridin-3-yl)phenyl)-3-(5-tert-pentyl-3-(2,2,4-trimethyl-3-oxopiperazine-1-carbonyl)thiophen-2-yl)urea] | < 100 nM |
| CNC(=O)c1ccc(-c2cc(NC(=O)Nc3sc(C(C)(C)C)cc3C(=O)N3CCNC(=O)C3(C)C)ccc2C)cn1 [5-(5-(3-(5-tert-butyl-3-(2,2-dimethyl-3-oxopiperazine-1-carbonyl)thiophen-2-yl)ureido)-2-methylphenyl)-N-methylpyridine-2-carboxamide] | < 100 nM |
| Cc1ccc(NC(=O)Nc2sc(C(C)(C)C)cc2C(=O)N2CCNC(=O)C2(C)C)cc1-c1ccc(OCCCN(C)C)nc1 [1-(5-tert-butyl-3-(2,2-dimethyl-3-oxopiperazine-1-carbonyl)thiophen-2-yl)-3-(3-(6-(3-(dimethylamino)propoxy)pyridin-3-yl)-4-methylphenyl)urea] | < 100 nM |
| Cc1ccc(NC(=O)Nc2sc(C(C)(C)C)cc2C(=O)N2CCNC(=O)C2(C)C)cc1-c1ccc(OCCN2CCNCC2)nc1 [1-(5-tert-butyl-3-(2,2-dimethyl-3-oxopiperazine-1-carbonyl)thiophen-2-yl)-3-(4-methyl-3-(6-(2-(piperazin-1-yl)ethoxy)pyridin-3-yl)phenyl)urea] | < 100 nM |
